Measurements as given in the NIST ThermoML archive (doi:10.1016/j.fluid.2007.07.016).

Assay: xn = mol fraction of the nth substance listed
Details: 101 kPa, Liquid; for viscosity: Capillary tube (Ostwald / Ubbelohde) method; for speed of sound: Linear variable-path acoustic interferometer

Cc1cccc(C)c1 [1,3-dimethylbenzene] + C1CCOC1
Details | speed of sound, 288.15 K [m/s] | speed of sound, 298.15 K [m/s] | speed of sound, 308.15 K [m/s] | speed of sound, 318.15 K [m/s] | viscosity, 288.15 K [mPa·s] | viscosity, 298.15 K [mPa·s] | viscosity, 308.15 K [mPa·s] | viscosity, 318.15 K [mPa·s]
x2 = 0 | 1373.2 | 1326.6 | 1281 | 1243 | 0.6696 | 0.588 | 0.5229 | 0.4684
x2 = 0.0722 | 1370.9 | 1324 | 1278.1 | 1239.4 | 0.6615 | 0.5823 | 0.5193 | 0.4668
x2 = 0.1486 | 1368.1 | 1321 | 1274.8 | 1235.5 | 0.6528 | 0.5762 | 0.5151 | 0.4647
x2 = 0.2134 | 1365.6 | 1318.4 | 1272.1 | 1232.2 | 0.6449 | 0.5703 | 0.511 | 0.4621
x2 = 0.2804 | 1362.9 | 1315.6 | 1269.2 | 1228.7 | 0.6363 | 0.5638 | 0.5061 | 0.4587
x2 = 0.3536 | 1359.7 | 1312.5 | 1265.9 | 1224.9 | 0.6263 | 0.556 | 0.4999 | 0.4542
x2 = 0.4255 | 1356.4 | 1309.3 | 1262.6 | 1221.1 | 0.616 | 0.5477 | 0.4932 | 0.4489
x2 = 0.4864 | 1353.5 | 1306.4 | 1259.7 | 1217.8 | 0.6068 | 0.5401 | 0.4869 | 0.4438
x2 = 0.5476 | 1350.5 | 1303.4 | 1256.6 | 1214.4 | 0.5971 | 0.5321 | 0.48 | 0.4382
x2 = 0.6041 | 1347.5 | 1300.5 | 1253.7 | 1211.1 | 0.5879 | 0.5243 | 0.4732 | 0.4323
x2 = 0.6751 | 1343.6 | 1296.7 | 1249.9 | 1206.9 | 0.5757 | 0.5139 | 0.464 | 0.4241
x2 = 0.7396 | 1339.8 | 1293.1 | 1246.4 | 1203.1 | 0.5642 | 0.5038 | 0.455 | 0.4162
x2 = 0.8005 | 1336.1 | 1289.6 | 1243 | 1199.5 | 0.5529 | 0.4939 | 0.446 | 0.408
x2 = 0.8722 | 1331.6 | 1285.4 | 1238.9 | 1195.1 | 0.5392 | 0.4817 | 0.4347 | 0.3974
x2 = 0.9378 | 1327.3 | 1281.4 | 1235.2 | 1191.1 | 0.5261 | 0.4699 | 0.4237 | 0.387
